Key:
plVDAC1 = biological target: T1, plVDAC1 (Mus musculus, UniProt Q60932); assay: Whole-cell patch-clamp membrane conductance in INS-1 cells; assay type: cell-based; conditions: superfusion with metformin 20 μM (FIG. 4f)
T1 construct: expressed in transfected cells; host or cells: INS-1 832/13 cells (rat insulinoma), transient transfection; plasmid a gift from Dr. R. Buettner
Protocol: Whole-cell currents in INS-1 832/13 cells were evoked and recorded by EPC10 amplifier and Pulse software (HEKA, Lambrecht/Pfalz, Germany) as previously described (Buda P. et al. 2013. PLoS One. 8(5):e64462) with the temperature maintained at 32° C. The cells were continuously perfused with extracellular solution containing 118 mM NaCl, 20 mM tetraethylammonium chloride, 5.6 mM KCl, 2.6 mM CaCl2), 1.2 mM MgCl2, 5 mM HEPES and 5 mM glucose (pH 7.4 with NaOH) in the presence of 100 μM tolbutamide (T0891, Sigma-Aldrich). The intracellular solution consisted of 125 mM Cs-glutamate, 10 mM CsCl, 10 mM NaCl, 1 mM MgCl2, 5 mM HEPES, 3 mM Mg-ATP, 0.1 mM cAMP and 0.05 mM EGTA (pH 7.2 with CsOH). […] Conductance was measured by applying 200-ms voltage ramps from −90 mV to −50 mV. […] Data presented are from […] after the addition when steady-state was reached.
Conductance measurements were performed after at least 5 minutes exposure, and the cell dish was replaced no later than after 1 hour of perfusion. No wash-out experiments were performed in this experiment.

db/db mice [1] = conditions: Cao K, et al. 2014; cited from earlier work
db/db mice [2] = assay: Daily i.p. injection of VBIT-4 in db/db and C57/BL mice (blood glucose, IPGTT); assay type: in vivo, mouse
Protocol: 5 weeks old db/db mice and control (C57/bl) (Janvier Laboratory, France), weighing 18-25 g, were used throughout the experiments. They were given a standard pellet diet (B&K) and tap water ad libitum. The experimental procedures were approved by the Ethics Committee for Animal Research at Lund University. Isolation of pancreatic islets was performed by retrograde injection of a collagenase solution via the bile-pancreatic duct and islets were then collected under a stereomicroscope at room temperature.
IPGTTs were performed in db/db and c57/bl mice after treatment with VDAC1 blocker (daily intraperitoneal injection with VBIT-4, […]) for 5 weeks. Prior to IPGTT test, the mice were fasted for 4 h. Glucose was dissolved in 0.9% NaCl and 2.0 g glucose/kg body weight was injected intraperitoneally. Serial blood sampling thereafter from vena saphena was performed at 0, 5, 15, 30 and 90 min as previously described elsewhere 35. Blood glucose was analyzed using glucose oxidase method and plasma insulin was analyzed by ELISA (Salehi, A. et al. 2008. PLoS ONE 3, e2165; Rosengren, A. H. et al. 2010. Science 327, 217-220). Total volume load was 0.3 ml. The Cumulative (area under the curve) changes in plasma glucose or insulin were calculated by subtracting the recorded values from basal (time 0).

T1 sequence (Q60932 whole entry, the tested form may be a part): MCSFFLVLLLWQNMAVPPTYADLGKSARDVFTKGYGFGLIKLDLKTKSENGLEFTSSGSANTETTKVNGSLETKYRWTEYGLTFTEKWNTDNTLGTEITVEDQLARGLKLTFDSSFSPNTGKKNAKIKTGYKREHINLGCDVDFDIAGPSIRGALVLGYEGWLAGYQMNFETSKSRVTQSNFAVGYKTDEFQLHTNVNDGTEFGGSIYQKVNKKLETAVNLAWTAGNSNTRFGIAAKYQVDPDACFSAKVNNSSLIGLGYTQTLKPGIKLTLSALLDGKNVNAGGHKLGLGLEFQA

SMILES	elevated conductance in plVDAC1-transformed cells (plVDAC1)	membrane currents in control INS-1 cells (plVDAC1)	severity of hyperglycemia at onset of the disease (db/db mice [1])	effects in animals with severe diabetes (db/db mice [2]; 14-week old db/db animals with severe diabetes, data not shown)	effects in control mice (db/db mice [2]; C57/BL mice, daily i.p. VBIT-4 from age 6 to 11 weeks)	glucose tolerance (IPGTT, 2 g/kg) (db/db mice [2]; db/db mice after 5 weeks VBIT-4 i.p. (FIG. 7g, 7h))	GSIS in vivo and in isolated islets (db/db mice [2]; db/db mice after 5 weeks VBIT-4 i.p. (FIG. 7i, 7k, 7l))	blood glucose concentrations upon VBIT-4 cessation (db/db mice [2]; db/db mice followed after 5 weeks treatment (FIG. 7f))	development of hyperglycemia (blood glucose) (db/db mice [2]; db/db mice, daily i.p. 25 mg/kg from age 6 to 11 weeks, vs vehicle (FIG. 7f))	water consumption and urine production (db/db mice [2]; db/db mice, early administration, data not shown)
CN(C)C(=N)N=C(N)N [metformin]	abrogating the elevated conductance	did not affect membrane currents	attenuates the severity of hyperglycemia	–	–	–	–	–	–	–
O=C(CC(CO)N1CCN(c2ccc(OC(F)(F)F)cc2)CC1)Nc1ccc(Cl)cc1 (racemic) [VBIT-4, N-(4-chlorophenyl)-4-hydroxy-3-(4-(4-(trifluoromethoxy)phenyl)-piperazin-1-yl)butanamide]	–	–	–	only marginal effects	no effects	markedly improved	markedly improved	rose gradually over several weeks	prevented the development of the severe hyperglycemia	prevented increases in water consumption and urine production

— patent US20210130291A1, “METHODS FOR TREATING DIABETES USING VDAC1 INHIBITORS” (THE NATIONAL INSTITUTE FOR BIOTECHNOLOGY IN THE NEGEV LTD., priority 2016, published 2021)
